Key:
[1] = Therapeutic index, ratio of ED50 for induction of catalepsy in po dosed Chinese Kun Ming mouse to ED50 for inhibition of apomorphine-induced climbing behavior in po dosed Chinese Kun Ming mouse; assay type: organism-based; details: in vivo, read-out: Ratio ED50
[2] = Therapeutic index, ratio of ED50 for induction of catalepsy in po dosed Chinese Kun Ming mouse to ED50 for inhibition of MK-801 induced hyperactivity in po dosed Chinese Kun Ming mouse; assay type: organism-based; details: in vivo, read-out: Ratio ED50
[3] = molecular target: T1, 5-hydroxytryptamine receptor 2C (Rattus norvegicus, UniProt P08909); assay: Displacement of [3H]mesulergine from 5-HT2C receptor in Sprague-Dawley rat cerebral cortex incubated for 15 mins in presence of spiperone by liquid scintillation counting analysis
T1 sequence (P08909 whole entry): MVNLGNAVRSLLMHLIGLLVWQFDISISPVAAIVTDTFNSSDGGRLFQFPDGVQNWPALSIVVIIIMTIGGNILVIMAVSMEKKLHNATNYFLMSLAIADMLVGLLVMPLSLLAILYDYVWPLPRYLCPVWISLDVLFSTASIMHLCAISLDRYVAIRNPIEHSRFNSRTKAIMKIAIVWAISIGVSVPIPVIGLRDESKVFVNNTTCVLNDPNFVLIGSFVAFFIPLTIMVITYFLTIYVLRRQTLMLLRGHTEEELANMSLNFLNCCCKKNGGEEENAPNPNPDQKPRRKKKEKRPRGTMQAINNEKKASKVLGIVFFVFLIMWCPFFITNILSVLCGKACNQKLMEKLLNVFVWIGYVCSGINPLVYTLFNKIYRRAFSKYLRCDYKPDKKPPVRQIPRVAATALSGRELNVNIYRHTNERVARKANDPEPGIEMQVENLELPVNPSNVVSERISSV

[4] = molecular target: 5-hydroxytryptamine receptor 2A (Rattus norvegicus, UniProt P14842); assay: Displacement of [3H] ketanserin from 5-HT2A receptor in Sprague-Dawley rat cerebral cortex incubated for 30 mins by liquid scintillation counting analysis
D(2) dopamine receptor = D(2) dopamine receptor (Rattus norvegicus, UniProt P61169); assay: Displacement of [3H]spiperone from dopamine D2 receptor in Sprague-Dawley rat striatum incubated for 30 mins by liquid scintillation counting analysis
Mus musculus [5] = assay: Inhibition of MK-801 induced hyperactivity in po dosed Chinese Kun Ming mouse administered for 60 mins followed by MK-801 challenge and measured for 90 mins; assay type: functional
[6] = Induction of catalepsy in po dosed Chinese Kun Ming mouse assessed as increase in unwanted extrapyramidal motor disturbances measured for 60 seconds; assay type: organism-based; details: in vivo, 1 min
[7] = molecular target: T2, 5-hydroxytryptamine receptor 1A (Rattus norvegicus, UniProt P19327); assay: Displacement of [3H]8-OH-DPAT from 5-HT1A receptor in Sprague-Dawley rat cerebral cortex incubated for 30 mins by liquid scintillation counting analysis
T2 sequence (P19327 whole entry): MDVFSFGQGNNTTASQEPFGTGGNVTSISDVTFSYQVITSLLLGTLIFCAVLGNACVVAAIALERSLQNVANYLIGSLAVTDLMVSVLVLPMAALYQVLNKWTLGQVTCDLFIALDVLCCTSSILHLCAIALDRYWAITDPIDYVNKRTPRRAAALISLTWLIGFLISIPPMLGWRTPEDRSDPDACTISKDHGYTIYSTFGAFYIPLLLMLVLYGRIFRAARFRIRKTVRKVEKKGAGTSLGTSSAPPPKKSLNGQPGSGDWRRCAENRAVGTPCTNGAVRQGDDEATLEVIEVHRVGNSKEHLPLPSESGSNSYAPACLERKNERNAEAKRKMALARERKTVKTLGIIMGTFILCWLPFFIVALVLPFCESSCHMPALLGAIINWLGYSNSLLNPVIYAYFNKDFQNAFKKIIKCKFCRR

Mus musculus [8] = assay: Inhibition of apomorphine-induced climbing behavior in po dosed Chinese Kun Ming mouse administered for 30 mins followed by apomorphine challenge and measured for 10 to 30 mins; assay type: functional
[9] = molecular target: T3, Adrenergic receptor alpha-1 (Rattus norvegicus, UniProt P15823+P23944+P43140); assay: Displacement of [3H]prazosin from adrenergic alpha1 receptor in Sprague-Dawley rat cerebral cortex incubated for 60 mins by liquid scintillation counting analysis
T3 sequence (P15823 whole entry): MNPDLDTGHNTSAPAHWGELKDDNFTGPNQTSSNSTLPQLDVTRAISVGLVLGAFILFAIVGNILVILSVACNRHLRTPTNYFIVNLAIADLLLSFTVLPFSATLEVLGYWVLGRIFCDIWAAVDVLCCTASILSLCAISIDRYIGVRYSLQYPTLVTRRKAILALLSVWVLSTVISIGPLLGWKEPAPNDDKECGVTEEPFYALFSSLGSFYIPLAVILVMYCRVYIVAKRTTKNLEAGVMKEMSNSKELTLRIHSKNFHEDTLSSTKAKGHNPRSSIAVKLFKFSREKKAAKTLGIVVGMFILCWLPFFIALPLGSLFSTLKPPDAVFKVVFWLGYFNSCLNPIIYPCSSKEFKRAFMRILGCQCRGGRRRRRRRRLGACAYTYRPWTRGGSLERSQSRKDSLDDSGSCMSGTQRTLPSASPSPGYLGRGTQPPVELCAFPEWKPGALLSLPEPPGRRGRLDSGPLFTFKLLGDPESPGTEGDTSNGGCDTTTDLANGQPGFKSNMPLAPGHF
T3 sequence (P23944 whole entry): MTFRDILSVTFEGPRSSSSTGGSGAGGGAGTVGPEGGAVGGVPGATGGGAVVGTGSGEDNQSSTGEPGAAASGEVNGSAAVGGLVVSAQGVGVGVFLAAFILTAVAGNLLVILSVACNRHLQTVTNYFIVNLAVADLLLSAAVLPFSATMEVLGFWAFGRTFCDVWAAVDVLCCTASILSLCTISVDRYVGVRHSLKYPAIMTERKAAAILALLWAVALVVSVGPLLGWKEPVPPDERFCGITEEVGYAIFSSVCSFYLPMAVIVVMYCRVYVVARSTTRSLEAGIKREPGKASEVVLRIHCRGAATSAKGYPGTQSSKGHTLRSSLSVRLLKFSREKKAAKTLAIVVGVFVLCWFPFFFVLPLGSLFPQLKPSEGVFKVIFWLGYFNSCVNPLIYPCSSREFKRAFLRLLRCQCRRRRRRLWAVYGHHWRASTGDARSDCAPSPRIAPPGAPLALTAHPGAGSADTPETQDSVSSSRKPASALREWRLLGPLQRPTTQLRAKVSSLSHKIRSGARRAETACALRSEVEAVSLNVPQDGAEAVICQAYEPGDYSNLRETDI
T3 sequence (P43140 whole entry): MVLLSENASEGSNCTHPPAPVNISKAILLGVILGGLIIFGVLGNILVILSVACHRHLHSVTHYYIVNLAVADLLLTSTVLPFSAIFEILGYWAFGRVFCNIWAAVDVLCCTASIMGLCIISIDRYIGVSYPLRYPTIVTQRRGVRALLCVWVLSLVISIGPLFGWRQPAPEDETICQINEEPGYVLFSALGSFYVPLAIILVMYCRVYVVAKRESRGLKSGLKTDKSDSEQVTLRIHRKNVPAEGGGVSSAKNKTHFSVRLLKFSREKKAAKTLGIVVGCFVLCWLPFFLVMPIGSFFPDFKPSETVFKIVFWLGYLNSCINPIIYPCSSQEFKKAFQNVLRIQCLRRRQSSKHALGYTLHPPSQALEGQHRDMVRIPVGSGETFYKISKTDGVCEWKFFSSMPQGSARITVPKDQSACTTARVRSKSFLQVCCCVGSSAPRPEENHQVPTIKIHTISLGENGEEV

Histamine H1 receptor = Histamine H1 receptor (Cavia porcellus, UniProt P31389); assay: Displacement of [3H]mepyramine from histamine H1 receptor in guinea pig cerebellum incubated for 60 mins by liquid scintillation counting analysis
[10] = molecular target: 5-hydroxytryptamine receptor 6 (Homo sapiens, UniProt P50406); assay: Displacement of [3H]lysergic acid diethylamide from human recombinant 5-HT6 receptor expressed in CHO cell membranes for 30 mins by liquid scintillation counting analysis
[11] = Toxicity in po dosed Chinese Kun Ming mouse assessed as lethality after 24 hrs; assay type: organism-based; details: in vivo

D(2) dopamine receptor, sequence (P61169 whole entry): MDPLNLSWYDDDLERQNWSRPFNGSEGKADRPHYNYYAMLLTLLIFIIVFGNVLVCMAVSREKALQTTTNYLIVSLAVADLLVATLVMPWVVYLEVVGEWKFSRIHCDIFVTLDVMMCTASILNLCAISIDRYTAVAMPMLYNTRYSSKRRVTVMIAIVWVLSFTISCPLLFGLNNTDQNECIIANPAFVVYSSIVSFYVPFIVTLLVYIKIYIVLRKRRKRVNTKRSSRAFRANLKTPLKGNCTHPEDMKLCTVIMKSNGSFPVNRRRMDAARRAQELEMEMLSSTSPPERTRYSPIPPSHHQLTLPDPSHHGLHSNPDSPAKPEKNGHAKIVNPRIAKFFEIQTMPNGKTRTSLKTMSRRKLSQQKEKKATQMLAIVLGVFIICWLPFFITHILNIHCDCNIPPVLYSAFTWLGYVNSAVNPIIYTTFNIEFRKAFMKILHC
5-hydroxytryptamine receptor 2A, sequence (P14842 whole entry): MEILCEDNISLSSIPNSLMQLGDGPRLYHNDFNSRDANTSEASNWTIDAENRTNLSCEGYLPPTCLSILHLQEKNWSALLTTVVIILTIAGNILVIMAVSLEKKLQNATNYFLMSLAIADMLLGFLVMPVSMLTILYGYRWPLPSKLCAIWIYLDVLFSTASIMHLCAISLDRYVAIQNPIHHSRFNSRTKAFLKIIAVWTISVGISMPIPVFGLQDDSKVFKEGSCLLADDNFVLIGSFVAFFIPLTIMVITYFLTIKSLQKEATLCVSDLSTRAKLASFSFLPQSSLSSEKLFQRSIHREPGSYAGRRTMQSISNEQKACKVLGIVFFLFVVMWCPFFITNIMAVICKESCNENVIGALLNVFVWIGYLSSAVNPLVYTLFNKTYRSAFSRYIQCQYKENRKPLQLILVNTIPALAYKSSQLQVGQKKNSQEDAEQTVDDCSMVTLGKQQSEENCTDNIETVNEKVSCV
5-hydroxytryptamine receptor 6, sequence (P50406 whole entry): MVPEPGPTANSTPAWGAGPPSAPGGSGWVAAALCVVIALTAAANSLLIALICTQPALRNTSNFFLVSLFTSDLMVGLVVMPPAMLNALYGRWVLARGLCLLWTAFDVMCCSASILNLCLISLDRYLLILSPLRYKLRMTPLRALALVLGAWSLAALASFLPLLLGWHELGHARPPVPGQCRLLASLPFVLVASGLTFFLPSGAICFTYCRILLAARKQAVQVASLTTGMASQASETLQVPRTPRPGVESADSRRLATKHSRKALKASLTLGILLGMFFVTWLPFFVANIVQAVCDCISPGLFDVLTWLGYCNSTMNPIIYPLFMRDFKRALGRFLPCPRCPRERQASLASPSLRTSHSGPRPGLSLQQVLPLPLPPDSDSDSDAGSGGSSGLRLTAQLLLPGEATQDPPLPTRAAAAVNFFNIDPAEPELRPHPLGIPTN
Histamine H1 receptor, sequence (P31389 whole entry): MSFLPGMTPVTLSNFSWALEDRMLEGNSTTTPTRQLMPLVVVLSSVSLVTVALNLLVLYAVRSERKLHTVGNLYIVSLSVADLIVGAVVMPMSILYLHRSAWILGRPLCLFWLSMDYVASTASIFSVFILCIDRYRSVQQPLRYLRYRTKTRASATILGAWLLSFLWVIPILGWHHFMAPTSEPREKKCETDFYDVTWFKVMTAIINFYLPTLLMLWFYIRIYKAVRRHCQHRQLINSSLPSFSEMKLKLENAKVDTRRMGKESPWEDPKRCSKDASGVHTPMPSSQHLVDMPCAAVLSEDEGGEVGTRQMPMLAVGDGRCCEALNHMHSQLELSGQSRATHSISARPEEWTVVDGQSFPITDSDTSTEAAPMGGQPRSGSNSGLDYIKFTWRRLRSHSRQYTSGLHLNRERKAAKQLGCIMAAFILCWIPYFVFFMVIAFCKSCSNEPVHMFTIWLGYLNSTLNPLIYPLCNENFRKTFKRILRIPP

| Ki [3] [nM] | Ki [4] [nM] | Ki (D(2) dopamine receptor) [nM] | Ki [7] [nM] | Ki [9] [nM] | Ki (Histamine H1 receptor) [nM] | Ki [10] [nM] | Structure (SMILES) | selectivity ratio [1] | selectivity ratio [2] | ED50 (Mus musculus [5]) [mg/kg] | ED50 [6] [mg/kg] | ED50 (Mus musculus [8]) [mg/kg] | LD50 at 24 h [11] [mg/kg] |
| --- | --- | --- | --- | --- | --- | --- | --- | --- | --- | --- | --- | --- | --- |
| 1 | 0.7 | 2.7 |  | 147 | 186 | 11.7 | O=c1ccc(OCCCN2CCC(c3noc4cc(F)ccc34)CC2)nn1-c1cc(Cl)ccc1Cl |  |  |  |  |  |  |
| 9.1 | 11.2 | 6.1 | 9 | 337 | 115 | 3.8 | O=c1ccc(OCCCN2CCC(c3noc4cc(F)ccc34)CC2)nn1-c1cc(F)ccc1F |  |  |  |  |  |  |
| 177 | 0.5 | 0.2 | 9.3 | 118 | 16.6 | 113 | O=c1ccc(OCCCN2CCC(c3noc4cc(F)ccc34)CC2)nn1-c1cccc(Cl)c1Cl |  |  |  |  |  |  |
|  |  |  |  |  |  |  | O=C(CCCN1CCC(O)(c2ccc(Cl)cc2)CC1)c1ccc(F)cc1 [HALOPERIDOL] | 3.11 | 2.95 | 0.19 | 0.56 | 0.18 |  |
|  |  |  |  |  |  |  | Cc1nc2n(c(=O)c1CCN1CCC(c3noc4cc(F)ccc34)CC1)CCCC2 [RISPERIDONE] |  |  | 0.018 | 0.38 | 0.02 |  |

| Structure (SMILES) | Ki [3] [nM] | Ki [4] [nM] | Ki (D(2) dopamine receptor) [nM] | Ki [7] [nM] | Ki [9] [nM] | Ki (Histamine H1 receptor) [nM] | Ki [10] [nM] | selectivity ratio [1] | selectivity ratio [2] | ED50 (Mus musculus [5]) [mg/kg] | ED50 [6] [mg/kg] | ED50 (Mus musculus [8]) [mg/kg] | LD50 at 24 h [11] [mg/kg] |
| --- | --- | --- | --- | --- | --- | --- | --- | --- | --- | --- | --- | --- | --- |
| O=c1ccc(OCCCN2CCC(c3noc4cc(F)ccc34)CC2)nn1-c1c(F)cccc1F | 1580 | 0.3 | 0.5 | 5.9 | 1098 | 2000 | 0.5 | 50.7 | 79.4 | 0.3 | 23.82 | 0.47 | > 2000 |
